Literature values in patent publication US8822536B2, “Dietary supplements containing terpenoid acids of maslinic acid or oleanolic acid and process for enhancing muscle mass in mammals” (FHG Corporation d/b/a Integrity Nutraceuticals, priority 2009, dated 2014).

Experiments:
glycogen phosphorylase = molecular target: T1, glycogen phosphorylase (Oryctolagus cuniculus, UniProt P00489)
T1 sequence (P00489 2-843 limits assumed): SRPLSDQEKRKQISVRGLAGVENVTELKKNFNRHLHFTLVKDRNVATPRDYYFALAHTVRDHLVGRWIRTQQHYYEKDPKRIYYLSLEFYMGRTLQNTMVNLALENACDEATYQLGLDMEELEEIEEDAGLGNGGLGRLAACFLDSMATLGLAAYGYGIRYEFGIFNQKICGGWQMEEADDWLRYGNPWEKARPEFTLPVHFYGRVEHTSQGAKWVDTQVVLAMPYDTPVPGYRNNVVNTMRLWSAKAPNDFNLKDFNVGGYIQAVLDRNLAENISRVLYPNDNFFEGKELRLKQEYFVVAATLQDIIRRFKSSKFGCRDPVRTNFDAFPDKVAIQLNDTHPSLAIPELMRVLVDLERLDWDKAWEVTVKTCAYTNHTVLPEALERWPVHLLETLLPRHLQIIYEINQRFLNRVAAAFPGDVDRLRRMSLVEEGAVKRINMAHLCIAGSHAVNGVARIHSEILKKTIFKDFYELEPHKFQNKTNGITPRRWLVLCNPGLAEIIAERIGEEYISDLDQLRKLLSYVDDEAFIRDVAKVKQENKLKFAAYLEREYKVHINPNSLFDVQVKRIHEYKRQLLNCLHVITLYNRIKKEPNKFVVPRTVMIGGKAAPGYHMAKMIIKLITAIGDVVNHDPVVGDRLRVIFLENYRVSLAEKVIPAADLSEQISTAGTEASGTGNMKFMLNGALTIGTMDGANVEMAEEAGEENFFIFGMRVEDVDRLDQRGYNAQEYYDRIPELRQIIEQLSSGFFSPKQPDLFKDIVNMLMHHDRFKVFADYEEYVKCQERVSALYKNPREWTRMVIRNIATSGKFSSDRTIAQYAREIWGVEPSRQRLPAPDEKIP

juvenile dentex fish = settings: 80 mg kg-1
[1] = trout fed 250 mg kg-1, with respect to a control
[2] = trout fed 25 and 250 mg kg-1, white muscle

## CC1(C)CC[C@]2(C(=O)O)CC[C@]3(C)C(=CC[C@@H]4[C@@]5(C)C[C@@H](O)[C@H](O)C(C)(C)[C@@H]5CC[C@]43C)[C@@H]2C1 [maslinic acid, 2-α,3-β-dihydroxyolean-12-en-28-oic acid]
Glycogen phosphorylase
  glycogen phosphorylase inhibition: new type of glycogen phosphorylase inhibitor
Juvenile dentex fish
  growth of juvenile dentex fish: retard
Rainbow trout liver
  accumulation of glycogen in liver: high accumulation of glycogen
trout; dietary maslinic acid, trout
  protein degradation rate, relative (KD) and absolute (AD): stimulated
  protein synthesis: induces higher protein synthesis
trout; [1]
  feed-efficiency ratio (FER): increased
  protein-efficiency ratio (PER): increased
trout; [2]
  absolute protein-degradation rate (AD): only a minor increase
  fractional protein-degradation rate (KD): no significant changes
  protein-synthesis rate (KS and AS): increased
trout; trout fed with maslinic acid
  protein-accumulation rates (KG and AG): high protein-accumulation rates
